{
  "source": "patent US20220288045A1",
  "about": "“Stable Pharmaceutical Composition Comprising Esomeprazole And Sodium Bicarbonate” (Chong Kun Dang Pharmaceutical Corp., priority 2019, published 2022)",
  "key": {"[1]": {"test": "Stability test of esomeprazole and omeprazole according to pH (HPLC content in buffer solution)", "assay_type": "physicochemical", "conditions": "in % (unit assumed)", "method": "After adding each 2 mL of 20 mg/mL strength of esomeprazole and omeprazole solutions to 100 mL of buffer solution, the content according to pH was analyzed, and the analysis method is as follows. <Analysis Method> A) Detector: Ultraviolet visible light absorption spectrometer (measurement wavelength: 280 nm) B) Column: Inertsil C8-3 (4.6×150 mm, 5 μm) or equivalent column C) Injection amount: 20 μl D) Flow rate: 1.5 mL/min E) Column temperature: constant temperature around 40° C. F) Sample temperature: constant temperature around 10° C."}, "[2]": {"conditions": "aqueous solutions with 3 or less of a pH value; cited from earlier work"}, "[3]": {"conditions": "for pH: 200 mL artificial gastric juice + 200 mL purified water, 37° C.", "excerpt": "To set the content of sodium bicarbonate, the drug release conditions and gastric juice conditions were set as follows."}},
  "note": "Like-named read-outs stand apart in the source and are kept apart here.",
  "data": [
    {"smiles": "COc1ccc2nc([S@@+]([O-])Cc3ncc(C)c(OC)c3C)[nH]c2c1", "note": "[S-omeprazole, (S)-5-methoxy-24(4-methoxy-3,5-dimethyl-2-pyridinyl)-methyllsulfinyl-1H-benzimidazole]", "values": [
      {"measurement": "content according to pH", "setting": "[1]; pH4.0, 5 min", "result": 64.1},
      {"measurement": "content according to pH", "setting": "[1]; pH4.0, 10 min", "result": 31.0},
      {"measurement": "content according to pH", "setting": "[1]; pH4.0, 15 min", "result": 15.9},
      {"measurement": "content according to pH", "setting": "[1]; pH4.0, 30 min", "result": 6.9},
      {"measurement": "content according to pH", "setting": "[1]; pH4.0, 45 min", "result": 1.7},
      {"measurement": "content according to pH", "setting": "[1]; pH4.0, 60 min", "result": 0.9},
      {"measurement": "content according to pH", "setting": "[1]; pH4.0, 120 min", "result": 0.1},
      {"measurement": "content according to pH", "setting": "[1]; pH6.0, 5 min", "result": 74.4},
      {"measurement": "content according to pH", "setting": "[1]; pH6.0, 10 min", "result": 72.8},
      {"measurement": "content according to pH", "setting": "[1]; pH6.0, 15 min", "result": 71.0},
      {"measurement": "content according to pH", "setting": "[1]; pH6.0, 30 min", "result": 68.9},
      {"measurement": "content according to pH", "setting": "[1]; pH6.0, 45 min", "result": 66.3},
      {"measurement": "content according to pH", "setting": "[1]; pH6.0, 60 min", "result": 63.6},
      {"measurement": "content according to pH", "setting": "[1]; pH6.0, 120 min", "result": 54.9},
      {"measurement": "content according to pH", "setting": "[1]; pH6.8, 5 min", "result": 95.6},
      {"measurement": "content according to pH", "setting": "[1]; pH6.8, 10 min", "result": 90.8},
      {"measurement": "content according to pH", "setting": "[1]; pH6.8, 15 min", "result": 90.5},
      {"measurement": "content according to pH", "setting": "[1]; pH6.8, 30 min", "result": 89.7},
      {"measurement": "content according to pH", "setting": "[1]; pH6.8, 45 min", "result": 88.9},
      {"measurement": "content according to pH", "setting": "[1]; pH6.8, 60 min", "result": 88.3},
      {"measurement": "content according to pH", "setting": "[1]; pH6.8, 120 min", "result": 86.2},
      {"measurement": "content according to pH", "setting": "[1]; pH7.0, 5 min", "result": 99.6},
      {"measurement": "content according to pH", "setting": "[1]; pH7.0, 10 min", "result": 99.0},
      {"measurement": "content according to pH", "setting": "[1]; pH7.0, 15 min", "result": 99.3},
      {"measurement": "content according to pH", "setting": "[1]; pH7.0, 30 min", "result": 98.9},
      {"measurement": "content according to pH", "setting": "[1]; pH7.0, 45 min", "result": 98.7},
      {"measurement": "content according to pH", "setting": "[1]; pH7.0, 60 min", "result": 98.1},
      {"measurement": "content according to pH", "setting": "[1]; pH7.0, 120 min", "result": 96.8},
      {"measurement": "content according to pH", "setting": "[1]; pH7.3, 5 min", "result": 100.1},
      {"measurement": "content according to pH", "setting": "[1]; pH7.3, 10 min", "result": 100.1},
      {"measurement": "content according to pH", "setting": "[1]; pH7.3, 15 min", "result": 100.0},
      {"measurement": "content according to pH", "setting": "[1]; pH7.3, 30 min", "result": 100.0},
      {"measurement": "content according to pH", "setting": "[1]; pH7.3, 45 min", "result": 100.0},
      {"measurement": "content according to pH", "setting": "[1]; pH7.3, 60 min", "result": 100.0},
      {"measurement": "content according to pH", "setting": "[1]; pH7.3, 120 min", "result": 99.90},
      {"measurement": "content according to pH", "setting": "[1]; pH7.5, 5 min", "result": 99.4},
      {"measurement": "content according to pH", "setting": "[1]; pH7.5, 10 min", "result": 99.3},
      {"measurement": "content according to pH", "setting": "[1]; pH7.5, 15 min", "result": 99.2},
      {"measurement": "content according to pH", "setting": "[1]; pH7.5, 30 min", "result": 99.1},
      {"measurement": "content according to pH", "setting": "[1]; pH7.5, 45 min", "result": 99.3},
      {"measurement": "content according to pH", "setting": "[1]; pH7.5, 60 min", "result": 99.1},
      {"measurement": "content according to pH", "setting": "[1]; pH7.5, 120 min", "result": 98.2},
      {"measurement": "content according to pH", "setting": "[1]; pH8.0, 15 min", "result": 101.1},
      {"measurement": "content according to pH", "setting": "[1]; pH8.0, 30 min", "result": 100.9},
      {"measurement": "content according to pH", "setting": "[1]; pH8.0, 45 min", "result": 100.7},
      {"measurement": "content according to pH", "setting": "[1]; pH8.0, 60 min", "result": 100.7},
      {"measurement": "content according to pH", "setting": "[1]; pH8.0, 120 min", "result": 100.0},
      {"measurement": "decomposition half-life", "setting": "[2]", "result": "less than 10 minutes"}
    ]},
    {"smiles": "O=C([O-])O.[Na+]", "note": "[Sodium bicarbonate]", "values": [
      {"measurement": "amount of sodium bicarbonate that can represent neutral pH by neutralizing 200 mL of artificial gastric juice", "setting": "[3]; 200 mL artificial gastric juice", "result": "at least 600 mg"},
      {"measurement": "pH", "setting": "[3]; Sodium bicarbonate 500 mg", "result": 5.77},
      {"measurement": "pH", "setting": "[3]; Sodium bicarbonate 600 mg", "result": 6.51},
      {"measurement": "pH", "setting": "[3]; Sodium bicarbonate 700 mg", "result": 7.30},
      {"measurement": "pH", "setting": "[3]; Sodium bicarbonate 800 mg", "result": 7.30},
      {"measurement": "pH", "setting": "[3]; Sodium bicarbonate 900 mg", "result": 7.31},
      {"measurement": "pH", "setting": "[3]; Sodium bicarbonate 1,000 mg", "result": 7.37},
      {"measurement": "pH", "setting": "[3]; Sodium bicarbonate 1,100 mg", "result": 7.38},
      {"measurement": "pH", "setting": "[3]; Sodium bicarbonate 1,200 mg", "result": 7.38},
      {"measurement": "pH", "setting": "[3]; Sodium bicarbonate 1,300 mg", "result": 7.40}
    ]}
  ]
}
